The text below walks through data of ChEMBL document CHEMBL1130490, “The Role of 4-phosphonodifluoromethyl- and 4-phosphono-phenylalanine in the selectivity and cellular uptake of SH2 domain ligands” (Bioorg Med Chem Lett, 1997).

Assay [1] addresses T1, Tyrosine-protein kinase ABL1 (Homo sapiens, UniProt P00519). Kind of assay: Inhibition of [35S]-labeled SH2-GST Abl binding to the phospho-PDGF receptor intracellular domain.
Assay [2] deals with T1, Tyrosine-protein kinase ABL1. The experiment in a line: Radioligand displacement assay for the binding of [125I]Glu-Pro-Gln-pTyr-Glu-Glu-Ile-Pro-Ile-Tyr-Leu to ABL SH2 domain. A general note: Loss of bound radioactivity is the signal in a displacement assay; it reports binding, not function.
The species entered for another assay is Mus musculus. The experiment in a line: Uptake rate for compound into Balbc3T3 cells normalized to 100 uM was measured. Type of assay: functional.

Each structure is given as a SMILES string. Where a SMILES comes first, the peptide text is derived from it. [ ]: non-standard residue; d: D form. pY = N[C@@H](Cc1ccc(OP(=O)(O)O)cc1)C(=O)O Bounds are passed on as bounds.

T1 sequence (P00519 whole entry, the tested form may be a part): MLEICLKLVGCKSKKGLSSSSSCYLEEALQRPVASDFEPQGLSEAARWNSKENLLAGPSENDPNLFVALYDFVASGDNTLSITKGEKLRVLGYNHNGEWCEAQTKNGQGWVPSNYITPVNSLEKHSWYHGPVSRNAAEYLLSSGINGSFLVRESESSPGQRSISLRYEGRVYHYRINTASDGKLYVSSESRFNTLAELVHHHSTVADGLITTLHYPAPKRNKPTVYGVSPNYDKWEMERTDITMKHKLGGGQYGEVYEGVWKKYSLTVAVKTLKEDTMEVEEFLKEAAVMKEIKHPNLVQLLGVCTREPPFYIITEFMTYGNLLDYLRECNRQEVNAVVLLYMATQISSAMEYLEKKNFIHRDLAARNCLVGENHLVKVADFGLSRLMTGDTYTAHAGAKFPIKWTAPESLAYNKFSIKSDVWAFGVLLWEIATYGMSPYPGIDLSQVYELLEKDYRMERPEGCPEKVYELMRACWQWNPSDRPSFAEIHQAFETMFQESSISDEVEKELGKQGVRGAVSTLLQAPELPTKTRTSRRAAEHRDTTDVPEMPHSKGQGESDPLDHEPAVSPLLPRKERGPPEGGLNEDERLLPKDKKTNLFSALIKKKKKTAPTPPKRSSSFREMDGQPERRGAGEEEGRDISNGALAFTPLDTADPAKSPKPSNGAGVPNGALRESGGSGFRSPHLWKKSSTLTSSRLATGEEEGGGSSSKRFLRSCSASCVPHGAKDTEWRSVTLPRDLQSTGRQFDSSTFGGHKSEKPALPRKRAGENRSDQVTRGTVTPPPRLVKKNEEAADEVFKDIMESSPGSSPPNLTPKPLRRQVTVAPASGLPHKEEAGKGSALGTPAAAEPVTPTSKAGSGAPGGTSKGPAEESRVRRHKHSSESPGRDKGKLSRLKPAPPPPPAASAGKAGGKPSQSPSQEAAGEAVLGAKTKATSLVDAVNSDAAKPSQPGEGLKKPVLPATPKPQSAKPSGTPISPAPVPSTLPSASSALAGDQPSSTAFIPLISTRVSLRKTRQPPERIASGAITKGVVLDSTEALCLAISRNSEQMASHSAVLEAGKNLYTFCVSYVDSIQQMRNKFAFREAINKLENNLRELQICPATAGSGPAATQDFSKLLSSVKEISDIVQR

Regarding `CC[C@H](C)[C@H](NC(=O)[C@H](CCC(=O)O)NC(=O)[C@H](CCC(=O)O)NC(=O)[C@H](Cc1ccc(OP(=O)(O)O)cc1)NC(C)=O)C(=O)N[C@@H](CCC(=O)O)C(=O)O` (Ac-[pY]EEIE-OH), the IC50 (as a rule, the concentration at which inhibition is half-maximal) in assay [1] came to 15 µM; in assay [2], 7.9 µM. The molecule `CCOP(=O)(OCC)c1ccc(C[C@H](NC(C)=O)C(=O)N[C@@H](CC)C(=O)N(C)CCCC2CCCCC2)cc1` gave an Uptake rate (nM min-1 cm**-2) in the assay filed under Mus musculus of 0.092. The same measure, in the same setting: as for `CCOP(=O)(OCC)C(F)(F)c1ccc(C[C@H](NC(C)=O)C(=O)N[C@@H](CCC(=O)OC(C)(C)C)C(=O)N(C)CCCC2CCCCC2)cc1`, the figure is 3.2.

`CC[C@H](NC(=O)[C@H](Cc1ccc(P(=O)(OCOC(=O)C(C)(C)C)OCOC(=O)C(C)(C)C)cc1)NC(C)=O)C(=O)N(C)CCCC1CCCCC1` registered an Uptake rate (nM min-1 cm**-2) in the assay listed under Mus musculus of 6.6. `CC[C@H](NC(=O)[C@H](Cc1ccc(C(F)(F)P(=O)(O)OCOC(=O)C(C)(C)C)cc1)NC(C)=O)C(=O)N(C)CCCC1CCCCC1` showed an Uptake rate (nM min-1 cm**-2) in the assay listed under Mus musculus of 0.01.

As for `CCOP(=O)(OCC)C(F)(F)c1ccc(C[C@H](NC(C)=O)C(=O)N[C@@H](CCC(=O)O)C(=O)N(C)CCCC2CCCCC2)cc1`, the Uptake rate (nM min-1 cm**-2) in the assay filed under Mus musculus was > 0.002.
